Drawing on PubChem BioAssay (NCI), this text covers GI50 and TGI for seven molecules.

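1) Cells in 96-well plates. 2) Compound, 48 h, 5 concentrations. 3) Linear interpolation between surrounding doses. 4) Unreached endpoint = highest concentration. GI50 marks 50% less growth. TGI: total growth inhibition.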

Some test systems named below: HCT-15 colon; EKVX NSCLC; HS 578T breast; M14 melanoma; HCT-116 colon; MCF7 breast; T-47D breast; SNB-75 CNS; HL-60(TB) leukemia; SF-539 CNS.
What all share (test): DTP human tumour cell line panel, 48 h

In general, GI50 refers to the concentration that inhibits growth by half. What is called TGI is the concentration giving total growth inhibition. For the molecule `O=S(=O)(O)c1ccc(Cl)cc1.[Cd]`, the GI50 in the assay with HCT-15 colon is more than 100 µM; in the assay on EKVX NSCLC, 80.6 µM; in the assay on HS 578T breast, 47 µM; in the assay on M14 melanoma, more than 100 µM; in the assay with HCT-116 colon, more than 100 µM; with MCF7 breast it was 34.6 µM. Moreover, the GI50 with T-47D breast was 27 µM; with SNB-75 CNS, 37.7 µM; with HL-60(TB) leukemia, 51.7 µM; in the assay on SF-539 CNS, 13.7 µM. Besides, the TGI in the assay on HCT-15 colon, with EKVX NSCLC, in the assay on HS 578T breast, in the assay on M14 melanoma, in the assay with HCT-116 colon and in the assay on MCF7 breast was more than 100 µM throughout. The TGI was 53.8 µM in the assay on T-47D breast, 97.2 µM in the assay with SNB-75 CNS, more than 100 µM with HL-60(TB) leukemia and 32.4 µM in the assay on SF-539 CNS.

For `COC(=O)NNc1c([N+](=O)[O-])cnn(-c2ccccc2)c1=O`, the TGI with HCT-15 colon amounted to 5.58 µM; in the assay on EKVX NSCLC, 9.75 µM; in the assay with HS 578T breast it was 6.98 µM; in the assay with M14 melanoma it was 3.29 µM; in the assay with HCT-116 colon it was 3.9 µM; in the assay on MCF7 breast, 18 µM. Further, the TGI in the assay on T-47D breast was found to be 4.54 µM; in the assay with SNB-75 CNS, 19.5 µM; with HL-60(TB) leukemia, 3.06 µM; in the assay on SF-539 CNS it was 8.22 µM.

For the molecule `C=C1C(=O)O[C@H]2[C@H]1CC/C(C=Nc1ccc(C(F)(F)F)cc1N)=C\CC[C@@]1(C)O[C@@H]21`, the GI50 was 3.48 µM in the assay with HCT-15 colon; 10.8 µM in the assay with EKVX NSCLC; 11.2 µM with HS 578T breast; 8.04 µM in the assay on M14 melanoma; 2.38 µM in the assay with HCT-116 colon; 3.06 µM in the assay on MCF7 breast. The GI50 in the assay with T-47D breast is 3.31 µM; in the assay on SNB-75 CNS it was 10.9 µM; in the assay with HL-60(TB) leukemia, 3.53 µM; in the assay with SF-539 CNS, 3.94 µM. For the same molecule, the TGI in the assay with HCT-15 colon turned out to be 13.6 µM; in the assay with EKVX NSCLC, 23.4 µM; with HS 578T breast it was 40.4 µM; with M14 melanoma, 22.3 µM; with HCT-116 colon, 11 µM; in the assay on MCF7 breast, 16 µM. For the same molecule, the TGI came to 22.1 µM in the assay with T-47D breast, 23.2 µM in the assay with SNB-75 CNS, 14.3 µM with HL-60(TB) leukemia and 15.4 µM in the assay with SF-539 CNS.

Consider `Cc1cc(Cl)ccc1NC(=O)/C(Cl)=C(/Cl)C(=O)O`, for which the TGI worked out at 37.9 µM in the assay with HCT-15 colon; 39.9 µM in the assay on EKVX NSCLC; 61.6 µM in the assay with HS 578T breast; 72.1 µM in the assay with M14 melanoma; 37.9 µM in the assay with HCT-116 colon; 50.5 µM with MCF7 breast. The TGI was 57.2 µM with T-47D breast, more than 100 µM in the assay on SNB-75 CNS, more than 100 µM in the assay on HL-60(TB) leukemia and 50.9 µM in the assay on SF-539 CNS.

As to `CCOCCc1c(O)nc(SC)[nH]c1=O`, the GI50 in the assay on HCT-15 colon, in the assay on EKVX NSCLC, in the assay on HS 578T breast, with M14 melanoma, in the assay on HCT-116 colon and in the assay with MCF7 breast was more than 100 µM in each case. The GI50 in the assay with T-47D breast, with SNB-75 CNS, in the assay on HL-60(TB) leukemia and in the assay with SF-539 CNS was more than 100 µM each time. Also, the TGI with HCT-15 colon, in the assay on EKVX NSCLC, in the assay on HS 578T breast, with M14 melanoma, in the assay with HCT-116 colon and with MCF7 breast was more than 100 µM in each case. Besides, the TGI in the assay on T-47D breast, with SNB-75 CNS, in the assay on HL-60(TB) leukemia and with SF-539 CNS was more than 100 µM in each case.

As for `Cc1ccc(Cl)cc1Nc1nc(C(F)(F)F)ccc1C(=O)N/N=C/c1c(Cl)cccc1Cl`, the GI50 in the assay with HCT-15 colon was 0.41 µM; with EKVX NSCLC, 0.507 µM; in the assay with HS 578T breast, 1.04 µM; in the assay on M14 melanoma, 1 µM; in the assay with HCT-116 colon, 0.355 µM; in the assay on MCF7 breast, 1.74 µM. The GI50 in the assay with T-47D breast is 0.517 µM; in the assay on SNB-75 CNS, 1.45 µM; with HL-60(TB) leukemia it was 0.863 µM; in the assay with SF-539 CNS, 1.62 µM. Moreover, the TGI in the assay with HCT-15 colon is 12.8 µM; in the assay on EKVX NSCLC it was 3.71 µM; with HS 578T breast it was 6.18 µM; in the assay with M14 melanoma, 5.67 µM; in the assay on HCT-116 colon it was 1.58 µM; with MCF7 breast, more than 38.1 µM. Further, the TGI with T-47D breast is 5.18 µM; in the assay with SNB-75 CNS it was more than 24.2 µM; with HL-60(TB) leukemia, 3.36 µM; in the assay with SF-539 CNS it was 5.05 µM.

Take `O=C(/C=C/c1ccccn1)c1ccccc1O`: the GI50 in the assay on HCT-15 colon was 2.35 µM; in the assay on EKVX NSCLC, 5.22 µM; with HS 578T breast it was 2.36 µM; in the assay on M14 melanoma it was 2 µM; with HCT-116 colon, 1.85 µM; in the assay with MCF7 breast it was 2.47 µM. The GI50 in the assay on T-47D breast is 2.45 µM; in the assay on SNB-75 CNS, 1.79 µM; in the assay with HL-60(TB) leukemia, 2.15 µM; in the assay on SF-539 CNS, 2.05 µM. In addition, the TGI turned out to be 6.68 µM with HCT-15 colon; 21.8 µM in the assay with EKVX NSCLC; 7.27 µM with HS 578T breast; 4.28 µM with M14 melanoma; 3.75 µM with HCT-116 colon; 10.4 µM in the assay on MCF7 breast. In addition, the TGI in the assay on T-47D breast was determined as 8.36 µM; in the assay on SNB-75 CNS it was 4.24 µM; in the assay on HL-60(TB) leukemia it was 6.15 µM; in the assay on SF-539 CNS, 4.2 µM.
